For 6 molecules, IC50 results are on record in ChEMBL document CHEMBL4665910, “Novel Thienopyridines as RIPK2 Inhibitors for Treating Inflammatory Bowel Disease” (ACS Med Chem Lett, 2020).

A word on the IC50: it is the concentration that inhibits the measured activity by half. A higher IC50 goes with weaker potency.

Structures are written as SMILES. Some results are limits rather than exact numbers.

The target in this assay is Receptor-interacting serine/threonine-protein kinase 2 (Homo sapiens, UniProt O43353). In words: Inhibition of RIPK2 (unknown origin) incubated for 1 hr by Lanthascreen TR-FRET assay. For orientation: Time-resolved FRET reads energy transfer from a long-lived donor to a nearby acceptor.
Chain of Receptor-interacting serine/threonine-protein kinase 2 (O43353 whole entry): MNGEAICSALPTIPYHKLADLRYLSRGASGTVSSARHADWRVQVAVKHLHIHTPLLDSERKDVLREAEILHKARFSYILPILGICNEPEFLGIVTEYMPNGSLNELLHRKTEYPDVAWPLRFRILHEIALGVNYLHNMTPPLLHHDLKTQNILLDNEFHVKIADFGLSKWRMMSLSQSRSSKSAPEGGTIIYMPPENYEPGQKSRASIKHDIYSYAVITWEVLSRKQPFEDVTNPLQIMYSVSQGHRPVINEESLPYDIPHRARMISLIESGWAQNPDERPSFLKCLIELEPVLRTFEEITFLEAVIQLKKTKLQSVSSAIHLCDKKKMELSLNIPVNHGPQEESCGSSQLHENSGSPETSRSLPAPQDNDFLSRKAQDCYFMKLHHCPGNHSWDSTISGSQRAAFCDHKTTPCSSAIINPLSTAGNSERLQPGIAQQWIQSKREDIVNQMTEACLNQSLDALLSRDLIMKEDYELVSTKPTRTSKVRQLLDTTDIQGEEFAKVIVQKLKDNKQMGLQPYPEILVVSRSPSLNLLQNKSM
With `C1=C(c2cc3c(Nc4ccc5scnc5c4)ccnc3s2)CCNCC1`, the IC50 was no more than 10 nM.
As to `C1=C(c2cc3c(Nc4ccc5scnc5c4)ccnc3s2)C2(CCOC2)NC1` (stereo unspecified), the IC50 was no more than 10 nM.
Molecule `CC1C(c2cc3c(Nc4ccc5scnc5c4)c(F)cnc3s2)CCCN1C` (stereo unspecified) returned an IC50 of no more than 10 nM.
As for `CC1NCCC1c1cc2c(Nc3cc4ncsc4cc3F)ccnc2s1` (stereo unspecified), the IC50 was no more than 10 nM.
Molecule `C1=C(c2cc3c(Nc4ccc5scnc5c4)ccnc3s2)C2(CCOCC2)NC1` displayed an IC50 of no more than 10 nM.
Consider `CC1NCCC=C1c1cc2c(Nc3ccc4scnc4c3)ccnc2s1` (stereo unspecified), for which the IC50 was no more than 10 nM.
